The values that follow come from patent US20250115581A1, “SUBSTITUTED PIPERIDINES AS CK1A DEGRADERS” (Monte Rosa Therapeutics, Inc., priority 2022, published 2025).

For experiment [1], the target named is CRBN/DDB1 (Homo sapiens, UniProt Q96SW2). Briefly: HTRF binding assay (displacement of Cy5-thalidomide probe from CRBN/DDB1). The settings on record: CRBN/DDB1 2.5 nM, Cy5-Thalidomide 100 nM, 30 min; geometric mean; read-out: HTRF_Thali_Disp_DR_geo_IC50. From the text: Binding of test compounds to CRBN/DDB1 was monitored in an HTRF assay using 1-[5-({2-[2-(2-{[2-(2,6-dioxopiperidin-3-yl)-1,3-dioxo-2,3-dihydro-1H-isoindol-4-yl]oxy}acetamido)ethoxy]ethyl}carbamoyl)pentyl]-3,3-dimethyl-2-[(1E,3E)-5-[(2E)-1,3,3-trimethyl-5-sulfo-2,3-dihydro-1H-indol-2-ylidene]penta-1,3-dien-1-yl]-3H-indol-1-ium-5-sulfonate as a fluorescent probe. In this assay, compounds displace the fluorescently labeled thalidomide-based probe bound to CRBN and fluorescence is monitored with increasing compound concentration. Assays were conducted in Greiner white 384 well HiBase plates (Cat. No 784075-25) in 10 μL total volume. A one pot detection solution of CRBN/DDB1 (2.5 nM), anti-His Terbium Cryptate Gold (1×, PerkinElmer Cat. #: 61HI2TLB), and Cy5-Thalidomide (100 nM, Tenova Cat.: T52461) was prepared in 20 mM HEPES, 20 mM NaCl, 0.2 mM TCEP, 0.2 mM EDTA, and 0.005% Tween20 was dispensed to each assay plate. Test compounds were stored in dry, ambient temperatures at 10 mM. A 10-point, 1:3 dilution series was prepared from 10 mM stock concentrations in Echo-compatible LDV plates. 10 nL of each compound dilution series was dispensed into assays wells using an Echo 650 (Labcyte inc. USA). 10 nL of 10 mM lenalidomide (Selleckchem Cat no. S1029) was transferred into the active-control wells for the assay and 10 nL of DMSO was transferred into the negative control wells. The assay was then allowed to incubate for 30 min at ambient temperature after transferring the test compounds. Plate measurements were taken on a Pherastar FSX (BMG Labtech, Germany) using the HTRF Red filter (Ex. 337 nm, em1: 620 nm, em2: 665 nm) (Flashes: 50, Integration time: 60-400 μs, Z-height: 10 mm, Ratio-multiplier: 10,000). Analysis, HTRF ratio and IC50 values were derived using KNIME analytics (KNIME Zurich) transformation and fitting within Collaborative Drug Discovery (Collaborative Drug Discovery USA) using a 4-parameter logistic fit. HTRF ratio calculation was performed using the following formula: […]
where em665 nm represents the measured emission at 665 nm upon excitation at 337 nm and em620 nm the measured emission at 620 nm upon excitation at 337 nm. The 4 parameter logistic fitting model was performed using the following formula: […]
where Y represents the HTRF ratio response (as defined previously), X the compound concentration in μM, Ymin the minimum response plateau, Ymax the maximum response plateau, IC50 the concentration of […] that gives a response half way between Ymin and Ymax and HillSlope the steepness of the family of curves. No fitting model constraints was applied on Ymin, or Ymax whilst IC50>0 and −0.5>HillSlope>−3 Cheng-Prusoff transformation
Ki values were derived from the geometric mean of the IC50 values using the Cheng-Prusoff transformation:
where [L] represents the concentration of fluorescent probe in […], Kd the affinity (binding constant) of the fluorescent probe in units of μM and IC50 the concentration of agonist that gives a response halfway between Ymin and Ymax (as described in 1.2.1)
Analysis and IC50 values were derived using KNIME analytics (KNIME, Zurich) transformation and fitting within Collaborative Drug Discovery (Collaborative Drug Discovery, USA) as described in 1.2.1. Ki values were derived from the geometric mean of the IC50 values using the Cheng-Prusoff transformation as described in 2.2.2. Data was visualized in GraphPad Prism 8.1.2 (GraphPad, USA) and reported as mean and standard deviation. Microsoft Office Excel 2012 (Redmond, WA) was used for calculation of mean and standard deviation.
IC50 data are reported in Table 3 for compounds in Table 1. In Table 3 below, According to the code, A represents a IC50 value of ≤0.1 μM, B represents a IC50 value >0.1 μM and ≤1 μM, C represents an IC50 value >1 μM.

Experiment [2] has as its target T1, CK1α (Homo sapiens, UniProt P48729+Q96SW2).
T1 construct: HEK293 clonal lines with CRISPR KI HiBiT tag on CSNK1A1; host or cells: HEK293 clonal line, CRISPR knock-in HiBiT at the CSNK1A1 locus, stably expressing LgBiT
The experiment is described as follows: CK1α NanoBit Assay (HiBiT-tagged CSNK1A1 in HEK293 cells, luminescence). It is filed as cell-based. The settings on record: 24 h. The protocol: HEK293 clonal lines with CRISPR KI HiBiT tag on CSNK1A1 and stably expressing LgBiT protein were obtained from Promega (Madison, WI). Cells were plated at 5000 cells per well using Multiflo (BioTek) in 384-well white solid bottom plates (Corning, 3570BC) in 25 μl volume in DMEM media (DMEM, high glucose, HEPES, no phenol red (ThermoFisher Scientific, 21063029)) containing 10% FBS (Corning, 35-075-CV), 1% Penicillin/Streptomycin ((ThermoFisher Scientific, 15140-122), and 0.2% Endurazine (Nano-Glo Endurazine Live Cell Substrate (Promega, N2571)). Cells were incubated for 16 hours at 37° C., 5% CO2. Depending on experiment 25 or 75 nL of a compound at 10 mM were added into the plate using an Echo® 650 liquid handler (Labcyte) to achieve final concentration of 10 or 30 μM in wells. Cells were incubated at 37° C., 5% CO2 for 24 hours and then signal was read on a Pherastar FSX using “LUM plus” optic module.
Data analysis was performed in Scinamic (Scinamic, Cambridge, MA). Luminescence response (R) was calculated by the formula: response=100*(S−N)/(P−N) where S is the signal of the well, N and P the mean negative and positive control values respectively of the same plate. The luminescence response was then fitted in Scinamic using a 3-parameter agonist logistic fit (hillslope=1, EC50>0, top/bottom unconstrained).
DC50 data are reported in Table 2 for compounds in Table 1. In Table 2 below, According to the code, A represents a DC50 value of ≤0.1 μM, B represents a DC50 value >0.1 μM and ≤1 μM, C represents an DC50 value >1 μM.
For orientation: With HiBiT, luminescence reflects the tagged protein that the partner subunit can reach.

pIC50: −log10 of the molar value.

Chain of CRBN/DDB1 (Q96SW2 whole entry): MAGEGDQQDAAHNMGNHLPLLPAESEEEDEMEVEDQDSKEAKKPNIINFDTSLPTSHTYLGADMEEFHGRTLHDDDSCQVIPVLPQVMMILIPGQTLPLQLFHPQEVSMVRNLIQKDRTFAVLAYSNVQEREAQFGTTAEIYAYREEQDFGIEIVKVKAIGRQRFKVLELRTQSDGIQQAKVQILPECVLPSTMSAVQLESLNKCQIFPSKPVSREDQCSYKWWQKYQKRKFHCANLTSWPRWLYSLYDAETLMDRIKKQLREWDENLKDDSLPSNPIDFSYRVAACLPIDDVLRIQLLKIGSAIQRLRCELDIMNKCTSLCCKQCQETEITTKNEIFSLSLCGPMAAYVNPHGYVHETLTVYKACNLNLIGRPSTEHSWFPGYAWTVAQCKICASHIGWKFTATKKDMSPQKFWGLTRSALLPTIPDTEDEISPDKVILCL
Chain of CRBN/DDB1 (Q16531 whole entry partner): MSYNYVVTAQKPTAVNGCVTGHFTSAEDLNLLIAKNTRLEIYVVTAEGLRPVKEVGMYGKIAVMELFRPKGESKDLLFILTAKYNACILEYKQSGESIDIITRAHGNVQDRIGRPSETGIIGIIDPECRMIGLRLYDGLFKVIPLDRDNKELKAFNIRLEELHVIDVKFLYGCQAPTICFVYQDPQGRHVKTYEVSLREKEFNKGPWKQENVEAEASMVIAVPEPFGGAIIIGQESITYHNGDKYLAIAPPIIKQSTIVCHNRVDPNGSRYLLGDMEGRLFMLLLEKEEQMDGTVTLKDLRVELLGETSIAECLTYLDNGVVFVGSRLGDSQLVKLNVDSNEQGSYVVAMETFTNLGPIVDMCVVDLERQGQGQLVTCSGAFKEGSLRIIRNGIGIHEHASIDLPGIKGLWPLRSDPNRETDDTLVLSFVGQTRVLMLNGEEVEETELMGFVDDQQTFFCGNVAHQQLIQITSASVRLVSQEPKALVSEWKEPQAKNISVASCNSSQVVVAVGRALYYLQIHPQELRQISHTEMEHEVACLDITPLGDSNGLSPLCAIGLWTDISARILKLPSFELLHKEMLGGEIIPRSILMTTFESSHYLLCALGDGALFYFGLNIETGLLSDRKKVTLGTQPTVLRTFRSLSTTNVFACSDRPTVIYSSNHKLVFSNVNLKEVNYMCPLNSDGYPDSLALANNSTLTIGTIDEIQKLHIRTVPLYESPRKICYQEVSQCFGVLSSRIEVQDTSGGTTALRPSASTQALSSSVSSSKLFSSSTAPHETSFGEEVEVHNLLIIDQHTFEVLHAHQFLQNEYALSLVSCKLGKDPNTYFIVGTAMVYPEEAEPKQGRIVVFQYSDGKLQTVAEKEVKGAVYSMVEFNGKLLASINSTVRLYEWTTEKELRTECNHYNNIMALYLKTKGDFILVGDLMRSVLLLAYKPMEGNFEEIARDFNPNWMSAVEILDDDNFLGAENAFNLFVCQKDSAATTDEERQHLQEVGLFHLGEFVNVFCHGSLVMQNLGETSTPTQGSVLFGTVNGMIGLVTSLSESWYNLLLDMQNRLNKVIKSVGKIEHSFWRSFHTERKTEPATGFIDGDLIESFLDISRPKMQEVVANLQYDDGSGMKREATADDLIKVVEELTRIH
T1 sequence (P48729 whole entry): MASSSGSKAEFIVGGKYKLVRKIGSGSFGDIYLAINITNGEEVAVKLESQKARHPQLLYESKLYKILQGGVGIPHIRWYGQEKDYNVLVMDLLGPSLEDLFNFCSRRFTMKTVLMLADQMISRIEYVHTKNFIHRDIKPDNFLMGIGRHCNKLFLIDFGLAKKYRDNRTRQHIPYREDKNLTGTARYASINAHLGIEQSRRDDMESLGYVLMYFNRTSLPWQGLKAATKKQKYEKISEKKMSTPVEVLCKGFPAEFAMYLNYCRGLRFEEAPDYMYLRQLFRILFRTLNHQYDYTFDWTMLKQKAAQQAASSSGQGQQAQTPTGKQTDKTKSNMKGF
T1 sequence (Q96SW2 whole entry): as the sequence (Q96SW2 whole entry) above
T1 sequence (Q16531 whole entry partner): as the sequence (Q16531 whole entry partner) above

For the molecule `O=C1CCC(N2Cc3cc(N4CCN(c5ccc(C6CCOC6)cc5)C4=O)ccc3C2=O)C(=O)N1` (stereo not shown) [Compound 144, 3-(1-oxo-5-(2-oxo-3-(4-(tetrahydrofuran-3-yl)phenyl)imidazolidin-1-yl)isoindolin-2-yl)piperidine-2,6-dione], the pIC50 in experiment [1] was 6.00 to 7.00. In experiment [2], this molecule showed a DC50 of no more than 0.1 µM.
The matching figures for `Cc1ccc(N2C(=O)N(c3ccc4c(c3)CN(C3CCC(=O)NC3=O)C4=O)C[C@@H]2C)cc1` (stereo partly drawn) [Compound 145, 3-(5-((S)-4-methyl-2-oxo-3-(p-tolyl)imidazolidin-1-yl)-1-oxoisoindolin-2-yl)piperidine-2,6-dione]: 6.00 to 7.00 and no more than 0.1 µM.
The matching figures for `O=C1CCC(N2Cc3cc(N4CCN(c5ccc(C6COC6)cc5)C4=O)ccc3C2=O)C(=O)N1` (stereo not shown) [Compound 146, 3-(5-(3-(4-(oxetan-3-yl)phenyl)-2-oxoimidazolidin-1-yl)-1-oxoisoindolin-2-yl)piperidine-2,6-dione]: 6.00 to 7.00 and no more than 0.1 µM.
The matching figures for `COCc1cccc(N2C(=O)N(c3ccc4c(c3)CN(C3CCC(=O)NC3=O)C4=O)C[C@H]2C)c1` (stereo partly drawn) [Compound 149, 3-(5-((R)-3-(3-(methoxymethyl)phenyl)-4-methyl-2-oxoimidazolidin-1-yl)-1-oxoisoindolin-2-yl)piperidine-2,6-dione]: 6.00 to 7.00 and no more than 0.1 µM.
Turning to `Cc1ccc(N2CCN(c3ccc4c(c3)CN(C3CCC(=O)NC3=O)C4=O)C2=O)c(C)c1` (stereo not shown) [Compound 150, 3-(5-(3-(2,4-dimethylphenyl)-2-oxoimidazolidin-1-yl)-1-oxoisoindolin-2-yl)piperidine-2,6-dione], the pIC50 in experiment [1] was 6.00 to 7.00. For the same molecule, in experiment [2], the DC50 is no more than 0.1 µM.
As for `Cc1ccc(N2C(=O)N(c3ccc4c(c3)CN(C3CCC(=O)NC3=O)C4=O)C[C@H]2C)cn1` (stereo partly drawn) [Compound 151, 3-(5-((R)-4-methyl-3-(6-methylpyridin-3-yl)-2-oxoimidazolidin-1-yl)-1-oxoisoindolin-2-yl)piperidine-2,6-dione], the pIC50 in experiment [1] is 6.00 to 7.00. In experiment [2], this molecule displayed a DC50 of no more than 0.1 µM.
For `O=C1CCC(N2Cc3cc(N4CC5(CC5)N(c5ccccc5)C4=O)ccc3C2=O)C(=O)N1` (stereo not shown) [Compound 152, 3-(1-oxo-5-(5-oxo-4-phenyl-4,6-diazaspiro[2.4]heptan-6-yl)isoindolin-2-yl)piperidine-2,6-dione], in that order: 6.00 to 7.00 and no more than 0.1 µM.
For `O=C1CCC(N2Cc3cc(N4CCN(C5CC6(CCC6)C5)C4=O)ccc3C2=O)C(=O)N1` (stereo not shown) [Compound 153, 3-(1-oxo-5-(2-oxo-3-(spiro[3.3]heptan-2-yl)imidazolidin-1-yl)isoindolin-2-yl)piperidine-2,6-dione], the pIC50 in experiment [1] was 6.00 to 7.00. The DC50 in experiment [2] lay in the range of 0.1 to 1 µM.
With `CC(c1ccccc1)N1CCN(c2ccc3c(c2)CN(C2CCC(=O)NC2=O)C3=O)C1=O` (stereo not shown) [Compound 154, 3-(1-oxo-5-(2-oxo-3-(1-phenylethyl)imidazolidin-1-yl)isoindolin-2-yl)piperidine-2,6-dione], in experiment [1], the pIC50 is 6.00 to 7.00. In addition, the DC50 in experiment [2] fell in the range of 0.1 to 1 µM.
For `Cc1ccc(N2C(=O)N(c3ccc4c(c3)CN(C3CCC(=O)NC3=O)C4=O)C[C@@H]2C)cn1` (stereo partly drawn) [Compound 155, 3-(5-((S)-4-methyl-3-(6-methylpyridin-3-yl)-2-oxoimidazolidin-1-yl)-1-oxoisoindolin-2-yl)piperidine-2,6-dione], in that order: 6.00 to 7.00 and 0.1 to 1 µM.
For `Cc1ccc(N2C(=O)N(c3ccc4c(c3)CN(C3CCC(=O)NC3=O)C4=O)C[C@H]2C)nc1` (stereo partly drawn) [Compound 156, 3-(5-((R)-4-methyl-3-(5-methylpyridin-2-yl)-2-oxoimidazolidin-1-yl)-1-oxoisoindolin-2-yl)piperidine-2,6-dione], in that order: 6.00 to 7.00 and 0.1 to 1 µM.
`COC[C@H]1CN(c2ccc3c(c2)CN(C2CCC(=O)NC2=O)C3=O)C(=O)N1c1ccc(C)cc1` (stereo partly drawn) [Compound 157, 3-(5-((R)-4-(methoxymethyl)-2-oxo-3-(p-tolyl)imidazolidin-1-yl)-1-oxoisoindolin-2-yl)piperidine-2,6-dione]: the pIC50 in experiment [1] was 6.00 to 7.00. The DC50 in experiment [2] is 0.1 to 1 µM.
In the case of `Cc1ccc(N2C(=O)N(c3ccc4c(c3)CN(C3CCC(=O)NC3=O)C4=O)C[C@@H]2C(F)F)cc1` (stereo partly drawn) [Compound 158, 3-(5-((R)-4-(difluoromethyl)-2-oxo-3-(p-tolyl)imidazolidin-1-yl)-1-oxoisoindolin-2-yl)piperidine-2,6-dione], in experiment [1], the pIC50 was 6.00 to 7.00. The DC50 in experiment [2] is 0.1 to 1 µM.
The matching figures for `O=C1CCC(N2Cc3cc(N4CCN(C5CCC5)C4=O)ccc3C2=O)C(=O)N1` (stereo not shown) [Compound 159, 3-(5-(3-cyclobutyl-2-oxoimidazolidin-1-yl)-1-oxoisoindolin-2-yl)piperidine-2,6-dione]: less than 6.00 and 0.1 to 1 µM.
For `O=C1CCC(N2Cc3cc(N4CCN(C5C6CCCC65)C4=O)ccc3C2=O)C(=O)N1` (stereo not shown) [Compound 160, 3-(5-(3-(bicyclo[3.1.0]hexan-6-yl)-2-oxoimidazolidin-1-yl)-1-oxoisoindolin-2-yl)piperidine-2,6-dione], in that order: 6.00 to 7.00 and 0.1 to 1 µM.
Turning to `C[C@@H]1CN(c2ccc3c(c2)CN(C2CCC(=O)NC2=O)C3=O)C(=O)N1C1CCOC1` (stereo partly drawn) [Compound 161, 3-(5-((4R)-4-methyl-2-oxo-3-(tetrahydrofuran-3-yl)imidazolidin-1-yl)-1-oxoisoindolin-2-yl)piperidine-2,6-dione], the pIC50 in experiment [1] was 6.00 to 7.00. In experiment [2], this molecule gave a DC50 of 0.1 to 1 µM.
With `O=C1CCC(N2Cc3cc(N4CCN(C5CCOC5)C4=O)ccc3C2=O)C(=O)N1` (stereo not shown) [Compound 162, 3-(1-oxo-5-(2-oxo-3-(tetrahydrofuran-3-yl)imidazolidin-1-yl)isoindolin-2-yl)piperidine-2,6-dione], the pIC50 in experiment [1] is 6.00 to 7.00. In addition, the DC50 in experiment [2] was in the range of 0.1 to 1 µM.
